Measurements published in PubChem BioAssay (NCI).
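In this assay, cells in 96-well plates receive the compound at five concentrations for 48 hours. Endpoints are linearly interpolated between the surrounding concentrations. At the GI50, growth is halved. At the TGI there is no net growth.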

Legend:
Assay in all cases: NCI-60 cell line screen, 48 h
LOX IMVI melanoma = system: LOX IMVI melanoma
NCI-H460 lung = system: NCI-H460 lung
OVCAR-4 ovarian = system: OVCAR-4 ovarian
M14 melanoma = system: M14 melanoma
CCRF-CEM leukemia = system: CCRF-CEM leukemia
BT-549 breast = system: BT-549 breast
U251 CNS = system: U251 CNS
ACHN renal = system: ACHN renal
MOLT-4 leukemia = system: MOLT-4 leukemia
NCI-H23 lung = system: NCI-H23 lung
K-562 leukemia = system: K-562 leukemia
MDA-MB-435 = system: MDA-MB-435
HOP-62 NSCLC = system: HOP-62 NSCLC
786-0 renal = system: 786-0 renal
SNB-75 CNS = system: SNB-75 CNS
TK-10 renal = system: TK-10 renal
IGROV1 ovarian = system: IGROV1 ovarian
UO-31 renal = system: UO-31 renal
NCI-H226 lung = system: NCI-H226 lung
KM12 colon = system: KM12 colon
SK-MEL-5 melanoma = system: SK-MEL-5 melanoma
OVCAR-5 ovarian = system: OVCAR-5 ovarian
EKVX NSCLC = system: EKVX NSCLC
COLO 205 colon = system: COLO 205 colon
MALME-3M melanoma = system: MALME-3M melanoma
SNB-19 CNS = system: SNB-19 CNS
A549 NSCLC = system: A549 NSCLC
SF-539 CNS = system: SF-539 CNS
PC-3 prostate = system: PC-3 prostate
HCC-2998 colon = system: HCC-2998 colon
MDA-MB-231 breast = system: MDA-MB-231 breast
DU-145 prostate = system: DU-145 prostate
MCF7 breast = system: MCF7 breast
RPMI-8226 leukemia = system: RPMI-8226 leukemia
HS 578T breast = system: HS 578T breast
SR leukemia = system: SR leukemia
UACC-257 melanoma = system: UACC-257 melanoma
HL-60(TB) leukemia = system: HL-60(TB) leukemia
NCI/ADR-RES ovarian = system: NCI/ADR-RES ovarian
A498 renal = system: A498 renal
UACC-62 melanoma = system: UACC-62 melanoma
SW-620 colon = system: SW-620 colon
HCT-15 colon = system: HCT-15 colon
CAKI-1 renal = system: CAKI-1 renal
HOP-92 NSCLC = system: HOP-92 NSCLC
SF-268 CNS = system: SF-268 CNS
SK-OV-3 ovarian = system: SK-OV-3 ovarian
SK-MEL-2 melanoma = system: SK-MEL-2 melanoma
SN12C renal = system: SN12C renal
SK-MEL-28 melanoma = system: SK-MEL-28 melanoma
RXF 393 renal = system: RXF 393 renal
HT29 colon = system: HT29 colon
NCI-H522 lung = system: NCI-H522 lung
SF-295 CNS = system: SF-295 CNS

CC1(C)CC[C@]23CC[C@]4(C)[C@H](CC[C@@H]5[C@@]6(C)CCCN(CO)C(C)(C)[C@@H]6CC[C@]54C)[C@H]2[C@H]1OC3
GI50 (LOX IMVI melanoma): 1.57 µM | TGI (LOX IMVI melanoma): 2.93 µM | GI50 (NCI-H460 lung): 1.88 µM | TGI (NCI-H460 lung): 3.7 µM | GI50 (OVCAR-4 ovarian): 3.42 µM | TGI (OVCAR-4 ovarian): 13.4 µM | GI50 (M14 melanoma): 1.8 µM | TGI (M14 melanoma): 4.04 µM | GI50 (CCRF-CEM leukemia): 3.49 µM | TGI (CCRF-CEM leukemia): > 100 µM | GI50 (BT-549 breast): 8.31 µM | TGI (BT-549 breast): 26 µM | GI50 (U251 CNS): 2.05 µM | TGI (U251 CNS): 4.7 µM | GI50 (ACHN renal): 1.87 µM | TGI (ACHN renal): 3.6 µM | GI50 (MOLT-4 leukemia): 2.99 µM | TGI (MOLT-4 leukemia): 10.2 µM | GI50 (NCI-H23 lung): 2.19 µM | TGI (NCI-H23 lung): 5.75 µM | GI50 (K-562 leukemia): 2.25 µM | TGI (K-562 leukemia): > 100 µM | GI50 (MDA-MB-435): 2.4 µM | TGI (MDA-MB-435): 6.67 µM | GI50 (HOP-62 NSCLC): 2.91 µM | TGI (HOP-62 NSCLC): 12.4 µM | GI50 (786-0 renal): 1.84 µM | TGI (786-0 renal): 3.4 µM | GI50 (SNB-75 CNS): 5.02 µM | TGI (SNB-75 CNS): 19.6 µM | GI50 (TK-10 renal): 14 µM | TGI (TK-10 renal): 28.7 µM | GI50 (IGROV1 ovarian): 1.91 µM | TGI (IGROV1 ovarian): 4 µM | GI50 (UO-31 renal): 9.62 µM | TGI (UO-31 renal): 23.6 µM | GI50 (NCI-H226 lung): 2.62 µM | TGI (NCI-H226 lung): 7.85 µM | GI50 (KM12 colon): 1.73 µM | TGI (KM12 colon): 3.5 µM | GI50 (SK-MEL-5 melanoma): 16.1 µM | TGI (SK-MEL-5 melanoma): 30.7 µM | GI50 (OVCAR-5 ovarian): 2.44 µM | TGI (OVCAR-5 ovarian): 6.7 µM | GI50 (EKVX NSCLC): 5.7 µM | TGI (EKVX NSCLC): 21.3 µM | GI50 (COLO 205 colon): 1.7 µM | TGI (COLO 205 colon): 3.35 µM | GI50 (MALME-3M melanoma): 2.64 µM | TGI (MALME-3M melanoma): 8.69 µM | GI50 (SNB-19 CNS): 3.09 µM | TGI (SNB-19 CNS): 12 µM | GI50 (A549 NSCLC): 2.76 µM | TGI (A549 NSCLC): 8.98 µM | GI50 (SF-539 CNS): 2.15 µM | TGI (SF-539 CNS): 4.95 µM | GI50 (PC-3 prostate): 2.91 µM | TGI (PC-3 prostate): 13.9 µM | GI50 (HCC-2998 colon): 1.76 µM | TGI (HCC-2998 colon): 3.35 µM | GI50 (MDA-MB-231 breast): 1.96 µM | TGI (MDA-MB-231 breast): 4.5 µM | GI50 (DU-145 prostate): 3 µM | TGI (DU-145 prostate): 8.95 µM | GI50 (MCF7 breast): 2.2 µM | TGI (MCF7 breast): 5.64 µM | GI50 (RPMI-8226 leukemia): 2.88 µM | TGI (RPMI-8226 leukemia): > 100 µM | GI50 (HS 578T breast): 3.32 µM | TGI (HS 578T breast): 17.1 µM | GI50 (SR leukemia): 1.87 µM | TGI (SR leukemia): 13.1 µM | GI50 (UACC-257 melanoma): 10.6 µM | TGI (UACC-257 melanoma): 24.6 µM | GI50 (HL-60(TB) leukemia): 2.01 µM | TGI (HL-60(TB) leukemia): 5.07 µM | GI50 (NCI/ADR-RES ovarian): 2.02 µM | TGI (NCI/ADR-RES ovarian): 4.6 µM | GI50 (A498 renal): 12 µM | TGI (A498 renal): 25.6 µM | GI50 (UACC-62 melanoma): 4.83 µM | TGI (UACC-62 melanoma): 17.8 µM | GI50 (SW-620 colon): 1.68 µM | TGI (SW-620 colon): 3.24 µM | GI50 (HCT-15 colon): 1.75 µM | TGI (HCT-15 colon): 3.71 µM | GI50 (CAKI-1 renal): 1.54 µM | TGI (CAKI-1 renal): 3.3 µM | GI50 (HOP-92 NSCLC): 1.68 µM | TGI (HOP-92 NSCLC): 4.75 µM | GI50 (SF-268 CNS): 6.61 µM | TGI (SF-268 CNS): 22.8 µM | GI50 (SK-OV-3 ovarian): 13.9 µM | TGI (SK-OV-3 ovarian): 27.7 µM | GI50 (SK-MEL-2 melanoma): 2.5 µM | TGI (SK-MEL-2 melanoma): 7.68 µM | GI50 (SN12C renal): 4.89 µM | TGI (SN12C renal): 18.6 µM | GI50 (SK-MEL-28 melanoma): 1.97 µM | TGI (SK-MEL-28 melanoma): 3.78 µM | GI50 (RXF 393 renal): 3.27 µM | TGI (RXF 393 renal): 18 µM | GI50 (HT29 colon): 1.86 µM | TGI (HT29 colon): 3.86 µM | GI50 (NCI-H522 lung): 15.9 µM | TGI (NCI-H522 lung): 31.7 µM | GI50 (SF-295 CNS): 1.96 µM | TGI (SF-295 CNS): 3.77 µM
